Here are results for 13 molecules from patent US11739098B2 (BRISTOL-MYERS SQUIBB COMPANY, priority 2017, dated 2023).

Molecules are shown by their SMILES.

Common to all, as to type: cell-based
One experiment concerns the target T1, human TLR7 (Homo sapiens, UniProt Q9NYK1).
T1 construct: host or cells: HEK-Blue cells (HEK293-derived reporter line)
T1 sequence (Q9NYK1 27-1049): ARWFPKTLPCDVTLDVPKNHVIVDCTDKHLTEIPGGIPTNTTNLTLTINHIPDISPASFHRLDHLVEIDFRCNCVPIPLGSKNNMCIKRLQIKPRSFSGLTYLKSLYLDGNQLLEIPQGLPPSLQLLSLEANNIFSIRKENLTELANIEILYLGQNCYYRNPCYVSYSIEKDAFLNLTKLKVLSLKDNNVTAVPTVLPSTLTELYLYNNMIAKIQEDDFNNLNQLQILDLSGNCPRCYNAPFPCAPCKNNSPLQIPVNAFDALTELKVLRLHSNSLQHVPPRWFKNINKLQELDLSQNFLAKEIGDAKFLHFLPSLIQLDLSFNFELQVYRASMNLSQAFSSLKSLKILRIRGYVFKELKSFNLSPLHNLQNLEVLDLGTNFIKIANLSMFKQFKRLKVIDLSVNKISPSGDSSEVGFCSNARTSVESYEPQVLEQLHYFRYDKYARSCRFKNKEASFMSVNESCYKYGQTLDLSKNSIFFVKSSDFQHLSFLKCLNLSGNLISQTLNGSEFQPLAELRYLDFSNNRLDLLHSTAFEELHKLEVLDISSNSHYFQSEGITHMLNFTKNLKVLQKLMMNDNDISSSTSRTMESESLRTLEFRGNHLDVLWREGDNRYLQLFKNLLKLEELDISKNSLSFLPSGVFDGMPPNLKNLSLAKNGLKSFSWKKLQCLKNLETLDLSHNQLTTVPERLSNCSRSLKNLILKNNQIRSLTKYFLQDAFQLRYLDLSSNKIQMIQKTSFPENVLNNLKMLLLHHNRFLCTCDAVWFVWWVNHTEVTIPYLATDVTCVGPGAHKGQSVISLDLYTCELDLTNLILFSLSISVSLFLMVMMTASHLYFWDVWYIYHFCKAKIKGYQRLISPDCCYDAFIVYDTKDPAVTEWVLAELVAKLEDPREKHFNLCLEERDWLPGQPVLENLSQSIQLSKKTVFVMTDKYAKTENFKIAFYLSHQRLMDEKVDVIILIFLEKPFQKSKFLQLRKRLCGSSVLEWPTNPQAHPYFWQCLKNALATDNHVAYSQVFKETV
Nature of the experiment: TLR7 inhibition reporter assay (HEK-Blue cells, SEAP reporter, gardiquimod stimulation). Conditions: HEK-Blue cells overexpressing human TLR7, SEAP reporter, gardiquimod 7.5 μM. The procedure, abridged:
(§1)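 HEK-Blue cells overexpressing the receptor, with NF-κB/AP-1-driven SEAP, were pre-treated 30 min at room temperature with compound (0.05 nM–50 μM), then stimulated with gardiquimod 7.5 μM (TLR7), R848 15.9 μM (TLR8) or ODN2006 5 nM (TLR9). SEAP was read after 22 h at 37 °C as percent inhibition.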
A general note: A reporter such as luciferase makes a cellular process visible.

For the next experiment, the target named is T2, human TLR8 (Homo sapiens, UniProt Q9NR97).
T2 construct: host or cells: HEK-Blue cells (HEK293-derived reporter line)
T2 sequence (Q9NR97 27-1041): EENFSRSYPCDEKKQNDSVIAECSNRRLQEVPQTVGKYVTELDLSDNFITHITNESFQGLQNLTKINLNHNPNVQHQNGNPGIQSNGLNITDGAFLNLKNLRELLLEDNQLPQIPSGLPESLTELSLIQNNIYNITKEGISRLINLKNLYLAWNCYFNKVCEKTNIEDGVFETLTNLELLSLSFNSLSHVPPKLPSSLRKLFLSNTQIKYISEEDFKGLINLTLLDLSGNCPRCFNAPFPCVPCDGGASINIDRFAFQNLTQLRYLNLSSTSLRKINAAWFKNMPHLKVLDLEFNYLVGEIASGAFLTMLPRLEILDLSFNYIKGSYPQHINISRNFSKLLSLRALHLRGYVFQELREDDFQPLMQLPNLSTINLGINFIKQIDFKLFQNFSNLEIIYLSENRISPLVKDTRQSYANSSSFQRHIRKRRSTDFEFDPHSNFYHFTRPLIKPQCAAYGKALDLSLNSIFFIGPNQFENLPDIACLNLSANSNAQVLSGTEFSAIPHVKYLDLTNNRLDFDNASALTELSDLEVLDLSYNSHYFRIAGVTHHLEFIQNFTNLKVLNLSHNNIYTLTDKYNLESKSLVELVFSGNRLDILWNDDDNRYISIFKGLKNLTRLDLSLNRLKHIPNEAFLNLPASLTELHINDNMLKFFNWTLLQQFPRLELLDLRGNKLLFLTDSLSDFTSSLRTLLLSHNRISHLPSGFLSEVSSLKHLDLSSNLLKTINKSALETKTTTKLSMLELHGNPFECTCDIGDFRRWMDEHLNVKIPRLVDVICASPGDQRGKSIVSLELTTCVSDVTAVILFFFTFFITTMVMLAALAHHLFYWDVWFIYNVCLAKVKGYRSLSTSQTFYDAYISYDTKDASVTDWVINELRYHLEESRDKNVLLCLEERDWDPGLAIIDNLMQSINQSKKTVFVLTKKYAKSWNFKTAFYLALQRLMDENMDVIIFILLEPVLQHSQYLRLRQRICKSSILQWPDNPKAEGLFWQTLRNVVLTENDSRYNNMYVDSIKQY
The experiment can be described thus: TLR8 inhibition reporter assay (HEK-Blue cells, SEAP reporter, R848 stimulation). Conditions: HEK-Blue cells overexpressing human TLR8, SEAP reporter, R848 15.9 μM. The procedure, abridged: as §1

The target of the next experiment is T3, human TLR9 (Homo sapiens, UniProt Q9NR96).
T3 construct: host or cells: HEK-Blue cells (HEK293-derived reporter line)
T3 sequence (Q9NR96 26-1032): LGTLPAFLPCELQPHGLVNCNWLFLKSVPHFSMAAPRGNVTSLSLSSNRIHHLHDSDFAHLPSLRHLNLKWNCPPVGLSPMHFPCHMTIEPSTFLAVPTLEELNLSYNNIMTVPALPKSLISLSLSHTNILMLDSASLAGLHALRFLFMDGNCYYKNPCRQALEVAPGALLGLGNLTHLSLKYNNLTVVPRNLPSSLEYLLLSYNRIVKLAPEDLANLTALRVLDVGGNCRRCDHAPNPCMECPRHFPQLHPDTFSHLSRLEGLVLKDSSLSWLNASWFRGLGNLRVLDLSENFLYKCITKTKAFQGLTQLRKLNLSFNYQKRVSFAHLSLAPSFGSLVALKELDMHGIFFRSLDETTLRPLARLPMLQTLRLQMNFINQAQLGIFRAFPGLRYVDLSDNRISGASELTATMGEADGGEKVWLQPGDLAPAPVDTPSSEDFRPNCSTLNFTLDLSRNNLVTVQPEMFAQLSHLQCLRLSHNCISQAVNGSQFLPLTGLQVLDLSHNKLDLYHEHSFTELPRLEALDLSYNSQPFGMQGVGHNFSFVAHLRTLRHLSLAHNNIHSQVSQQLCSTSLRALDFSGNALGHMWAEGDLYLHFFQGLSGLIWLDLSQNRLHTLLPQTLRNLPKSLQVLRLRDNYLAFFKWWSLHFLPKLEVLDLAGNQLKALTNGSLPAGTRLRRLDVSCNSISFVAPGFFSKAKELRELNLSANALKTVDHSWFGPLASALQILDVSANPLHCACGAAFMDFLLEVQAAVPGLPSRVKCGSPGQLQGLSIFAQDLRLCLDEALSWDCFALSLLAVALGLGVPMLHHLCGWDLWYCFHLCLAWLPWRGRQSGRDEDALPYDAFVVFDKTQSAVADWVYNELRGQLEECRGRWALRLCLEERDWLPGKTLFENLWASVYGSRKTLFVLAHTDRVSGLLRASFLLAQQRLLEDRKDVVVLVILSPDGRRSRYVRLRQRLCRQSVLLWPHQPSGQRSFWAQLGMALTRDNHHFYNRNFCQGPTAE
Nature of the experiment: TLR9 inhibition reporter assay (HEK-Blue cells, SEAP reporter, ODN2006 stimulation). Conditions: HEK-Blue cells overexpressing human TLR9, SEAP reporter, ODN2006 5 nM. The procedure, abridged: as §1

On to `Cc1cc(-c2[nH]c3ccc(C4CCN(C5CCS(=O)(=O)CC5)CC4)cc3c2C(C)C)cc2cccnc12` [Example 800, 4-(4-(3-isopropyl-2-(8-methylquinolin-6-yl)-1H-indol-5-yl)piperidin-1-yl)tetrahydro-2H-thiopyran 1,1-dioxide], for which the half-inhibitory concentration (IC50) against human TLR7 was below 0.1 µM; at human TLR8 it was 0.1 to 1 µM; against human TLR9, 1 to 50 µM.
The like results for `CNCC(=O)N1CCC(c2ccc3[nH]c(-c4cn5cc(C)nc5cc4C)c(C(C)C)c3c2)CC1` [Example 510, 1-(4-(2-(2,7-dimethylimidazo[1,2-a]pyridin-6-yl)-3-isopropyl-1H-indol-5-yl)piperidin-1-yl)-2-(methylamino)ethan-1-one] were, in that order, below 0.1 µM, 1 to 50 µM and 0.1 to 1 µM.
In the case of `Cc1c(-c2ccnc3[nH]ccc23)[nH]c2ccc(C3CCN(C4CCN(C)CC4)CC3)cc12` [Example 810, 4-(3-methyl-5-(1′-methyl-[1,4′-bipiperidin]-4-yl)-1H-indol-2-yl)-1H-pyrrolo[2,3-b]pyridine], the IC50 on human TLR7 is below 0.1 µM; at human TLR8, below 0.1 µM; on human TLR9, 0.1 to 1 µM.
For the molecule `CCc1c(-c2ccnc3[nH]ncc23)[nH]c2ccc(C3CCNCC3F)cc12` (stereo not drawn) [Example 173, 4-(3-ethyl-5-(3-fluoropiperidin-4-yl)-1H-indol-2-yl)-1H-pyrazolo[3,4-b]pyridine], the values for the IC50 at human TLR7, at human TLR8 and against human TLR9 were 0.1 to 1 µM, below 0.1 µM and 1 to 50 µM, respectively.
Taken in the same sequence, the figures for `COc1cc(-c2[nH]c3ccc(C4CCN(C5COC5)CC4)cc3c2C(C)C)cc2nccn12` [Example 712, 7-(3-isopropyl-5-(1-(oxetan-3-yl)piperidin-4-yl)-1H-indol-2-yl)-5-methoxyimidazo[1,2-a]pyridine] were 0.1 to 1 µM, 0.1 to 1 µM and 0.1 to 1 µM.
Taken in the same sequence, the figures for `Cc1nc(CN2CCC(c3ccc4[nH]c(-c5ccc6nccn6c5)c(C(C)C)c4c3)CC2)c[nH]1` [Example 938, 6-(3-isopropyl-5-(1-((2-methyl-1H-imidazol-4-yl)methyl)piperidin-4-yl)-1H-indol-2-yl)imidazo[1,2-a]pyridine] were below 0.1 µM, below 0.1 µM and 0.1 to 1 µM.
As to `Cc1cc(-c2[nH]c3ccc(C4CCN(C5CCS(=O)(=O)CC5)CC4)cc3c2C(C)C)cc2cnnn12` [Example 794, 4-(4-(3-isopropyl-2-(7-methyl-[1,2,3]triazolo[1,5-a]pyridin-5-yl)-1H-indol-5-yl)piperidin-1-yl)tetrahydro-2H-thiopyran 1,1-dioxide], the figures for the IC50 against human TLR7, at human TLR8 and against human TLR9 were below 0.1 µM, below 0.1 µM and 1 to 50 µM, respectively.
Regarding `CC(C)c1c(-c2cn(C)c3ncncc23)[nH]c2ccc(C3CCN(C(=O)CN(C)C)CC3)cc12` [Example 456, 2-(dimethylamino)-1-(4-(3-isopropyl-2-(7-methyl-7H-pyrrolo[2,3-d]pyrimidin-5-yl)-1H-indol-5-yl)piperidin-1-yl)ethan-1-one], the results for the half-maximal inhibitory concentration (IC50) against human TLR7, against human TLR8 and at human TLR9 were below 0.1 µM, below 0.1 µM and 1 to 50 µM, respectively.
`Cc1cc(-c2[nH]c3ccc(C4CCN(S(=O)(=O)CCO)CC4)cc3c2C(C)C)cn2nnnc12` [Example 616, 2-((4-(3-isopropyl-2-(8-methyltetrazolo[1,5-a]pyridin-6-yl)-1H-indol-5-yl)piperidin-1-yl)sulfonyl)ethan-1-ol]: the IC50 at human TLR7 was below 0.1 µM; against human TLR8, 0.1 to 1 µM; at human TLR9, above 50 µM.
The like results for `CCc1c(-c2ccnc3[nH]ncc23)[nH]c2ccc(C3CCN(C(=O)C4CCNCC4)CC3)cc12` [Example 647, (4-(3-ethyl-2-(1H-pyrazolo[3,4-b]pyridin-4-yl)-1H-indol-5-yl)piperidin-1-yl)(piperidin-4-yl)methanone] were, in that order, 0.1 to 1 µM, 0.1 to 1 µM and 1 to 50 µM.
Taken in the same sequence, the figures for `CNC(=O)CN1CCC(c2ccc3[nH]c(-c4cc(C)c5ncccc5c4)c(C(C)C)c3c2)CC1` [Example 437, 2-(4-(3-isopropyl-2-(8-methylquinolin-6-yl)-1H-indol-5-yl)piperidin-1-yl)-N-methylacetamide] were below 0.1 µM, below 0.1 µM and 1 to 50 µM.
With `CC(C)c1c(-c2ccnc3[nH]ncc23)[nH]c2ccc(C3CCNC(=O)C3)cc12` (stereo not drawn) [Example 248, 4-(3-Isopropyl-2-(1H-pyrazolo[3,4-b]pyridin-4-yl)-1H-indol-5-yl)piperidin-2-one], the IC50 was 0.1 to 1 µM against human TLR7, below 0.1 µM against human TLR8 and above 50 µM against human TLR9.
The like results for `CCc1c(-c2cnc3ncnn3c2)[nH]c2ccc(C3CCNCC3)cc12` [Example 26, 6-(3-ethyl-5-(piperidin-4-yl)-1H-indol-2-yl)-[1,2,4]triazolo[1,5-a]pyrimidine] were, in that order, 0.1 to 1 µM, 0.1 to 1 µM and 0.1 to 1 µM.

The IC50 is the concentration that inhibits the measured activity by half. The low end stands for greater potency, the high end for weaker potency.
